Source: patent publication US7786041B2, “Synergistic crop plant-compatible herbicidal compositions comprising herbicides from the group of the benzoylcyclohexanediones” (priority 2005, dated 2010)

Tests used:
[1] = system: corn; test: Post-emergence damage to corn, second test series; settings: in vivo
Experimental: (§1) Seeds of monocotyledonous and dicotyledonous weed and crop plants are placed into sandy loam in wood fiber pots or in plastic pots, covered with soil and cultivated in a greenhouse, including during the vegetation period outdoors outside of the greenhouse, under good growth conditions. 2-3 weeks after sowing, the test plants are treated at the one- to three-leaf stage. The test compounds, formulated as wettable powders (WP) or liquid (EC) are, in various dosages with a water application rate of 300 l/ha (converted), with added wetting agent (0.2 to 0.3%), sprayed onto the plants and the surface of the soil. 3 to 4 weeks after the treatment of the test plants, the effect of the preparations is rated visually in comparison to untreated controls (herbicidal effect in percent (%): 100% effect=plants have died, 0% effect=like control plants).
(§2) In a second test series, the herbicidal action and the damage to corn of the compositions according to the invention (A+Bx+C1) was compared to that of the herbicide alone (A) and to that of a herbicidal composition (A+C1) known from the prior art.

[2] = system: harmful plants Abutilon theophrasti, Ambrosia elatior, Digitaria sanguinalis, Echinochloa crus galli, Pharbitis purpureum, Fallopia convolvulus, Setaria …; test: Herbicidal post-emergence action, second test series, mean over ten harmful plants; assay type: in vivo; settings: Table 5, mean value of the herbicidal actions against ten harmful plants, each herbicide 200 g of a.i./ha, safener C1 100 g of a.i./ha
Experimental: as §1, §2

## CS(=O)(=O)c1ccc(C(=O)C2C(=O)CCCC2=O)c(Cl)c1COCC(F)(F)F [A]
[1]
  Damage to corn: 11%
[2]
  Herbicidal action: 86%
